{"source": "patent US20120165230A1", "about": "“BIOLOGICALLY PRODUCED CYCLIC AFFINITY TAGS” (LanthioPep B.V., priority 2009, published 2012)", "test_system": "L. lactis MG1363", "assay": "Antimicrobial activity: growth inhibition in two-fold dilution series in microwell plate, OD600 after 6 hours", "type": "cell-based, Lactococcus lactis", "settings": "supernatant treated with trypsin to cleave off leader, two-fold dilutions", "method": "FIG. 2. Antimicrobial activity of a truncated nisin mutant containing HPQF (SEQ ID NO:7) in ring C. Lactococcus lactis containing a first plasmid encoding NisB, NisT and NisC and a second plasmid encoding […] (SEQ ID NO:44) was induced. The supernatant was treated with trypsin to cleave off the leader peptide. Series of two-fold dilutions were made in a microwell plate and the peptide's capacity to inhibit the growth of L. lactis MG1363 was tested by measuring OD 600 after six hours of incubation. ∘: control with PBS, ▪: truncated nisin mutant, ▾: supernatant of nisin A-producing L. lactis NZ9700.\nThe leader was cleaved off with trypsin and the antimicrobial activity was measured as follows: In a microwell plate, 200 μl of supernatant of nisin fusion strain and in other wells, 200 μl of control (positive, e.g., filtered sup of NZ9700 and negative) solutions was added to the wells of the first column. 100 μl medium was added to the remaining empty wells. For each row, 100 μl from the first column was added to the second and, after mixing, from the second to the third, etc., leading to two-fold dilution steps. 100 μl of sensitive strain. MG1363 was added to all wells at low density, OD600: 0.05-0.1. After 6 hours, OD600 was measured."}
{"sequence": "ITSISLCTPGCKTHPQFCNMKEQKLISEED [H14, P15, Q16, F17, ΔG18 mutant of nisin (1-22) with internal strep-tag, coupled to external myc-tag EQKLISEED]", "values": [{"measurement": "antimicrobial activity (inhibition of growth of L. lactis MG1363)", "setting": "FIG. 2", "result": "clearly has antimicrobial activity"}, {"measurement": "antimicrobial activity (inhibition of growth of L. lactis MG1363)", "setting": "FIG. 2, listed as truncated nisin mutant", "result": "still has activity"}]}
